A short description of data set [1]: logP by HPLC on reversed phase columns, method [a], pH 2.3 with 0.1% phosphoric acid and acetonitrile. The conditions noted are these: method [a]: pH 2.3, 0.1% phosphoric acid and acetonitrile as eluent, EEC directive 79/831 Annex V.A8, reversed phase HPLC; for chromatographic logP: reversed phase HPLC columns, read-out: log p. Type of data set: physicochemical.

A further data set concerns Phytophthora infestans. The experiment in a line: whole plant or invertebrate. In kind it is in vivo. To be noted: in Solanum lycopersicum, 168 h, read-out: efficacy.
Data set [2] can be described thus: logP(HCOOH) reported with HPLC/MS.

Structures are written as SMILES. Some results are limits rather than exact numbers.

With `CN(CCc1ccccc1)c1nc(CON=C(c2ccccc2)c2nnnn2C)cs1` [Example 37], the log p in data set [1] is 3.96^[a].

Turning to `CN(Cc1ccccc1)c1nc(CON=C(c2ccccc2)c2nnnn2C)cs1` [Example 48], in data set [1], the log p is 3.89^[a].

Turning to `Cn1nnnc1C(=NOCc1csc(C#CC2CCCCC2)n1)c1ccccc1` [Example 68], in data set [1], the log p was 4.89^[a].

Consider `CCCC(C)C#Cc1nc(CON=C(c2ccccc2)c2nnnn2C)cs1` (centres unmarked) [Example 64], for which the log p in data set [1] is 4.78^[a].

`Cn1nnnc1C(=NOCc1cccc(-c2cc(Cl)cc(Cl)c2)n1)c1ccccc1` [Example 41]: the log p in data set [1] is 5.23^[a].

With `Cn1nnnc1C(=NOCc1csc(C#Cc2ccccc2)n1)c1ccccc1` [Example 59], the log p in data set [1] was 4.16^[a].

`COCC#Cc1nc(CON=C(c2ccccc2)c2nnnn2C)cs1` [Example 71]: in data set [1], the log p was 2.92^[a].

Consider `Cn1nnnc1C(=NOCc1cccc(-c2cccc(C(F)(F)F)c2)n1)c1ccccc1` [Example 45], for which the log p in data set [1] is 4.56^[a].

Turning to `Cn1nnnc1C(=NOCc1csc(C#CCC2CCCCC2)n1)c1ccccc1` [Example 67], the log p in data set [1] was 5.32^[a].

For `COCCCN(C)c1nc(CON=C(c2ccccc2)c2nnnn2C)cs1` [Example 46], the log p in data set [1] was 2.59^[a].

Consider `Cn1nnnc1C(=NOCc1cccc(NCCC2CCCCC2)n1)c1ccccc1` [Example 80, N-(2-cyclohexylethyl)-6-[({[(1-methyl-1H-tetrazol-5-yl)(phenyl)methylene]amino}oxy)methyl]pyridin-2-amine], for which the pest or weed control at 500 ppm in the data set on Phytophthora infestans is at least 70%.

Consider `Cn1nnnc1C(=NOCc1cccc(C#CC(C)(C)C)n1)c1ccccc1` [Example 22], for which the log p in data set [1] is 4.19^[a].

Take `Cn1nnnc1C(=NOCc1cccc(/C=C/Cc2ccccc2)n1)c1ccccc1` [Example 94]: the log p in data set [1] is 4.31^[a].

With `Cn1nnnc1C(=NOCc1cccc(-c2ccc(C(F)(F)F)cc2)n1)c1ccccc1` [Example 34], the log p in data set [1] is 4.62^[a].

As for `Cn1nnnc1C(=NOCc1csc(N2CCCCC2)n1)c1ccccc1` [Example 49], the log p in data set [1] was 3.39^[a].

`CCCCOc1cccc(-c2cccc(CON=C(c3ccccc3)c3nnnn3C)n2)c1` [Example 44]: the log p in data set [1] is 5.2^[a].

`Cn1nnnc1C(=NOCc1csc(/C=C/C2CCCCC2)n1)c1ccccc1` [Example 89]: the log p in data set [1] is 5.14^[a].

`Cn1nnnc1C(=NOCc1cccc(-c2cccc(CON=C(c3ccccc3)c3nnnn3C)n2)n1)c1ccccc1` [Example 21]: the log p in data set [1] was 4.36^[a].

On to `Cn1nnnc1C(=NOCc1csc(C#CCCCc2ccccc2)n1)c1ccccc1` [Example 62], for which the log p in data set [1] is 4.78^[a].

In the case of `CC(C)[Si](C#Cc1cccc(CON=C(c2ccccc2)c2nnnn2C)n1)(C(C)C)C(C)C` [Example 28], the log p in data set [1] was 6.83^[a].

Turning to `Cn1nnnc1C(=NOCc1cccc(C#CC2CCCC2)n1)c1ccccc1` [Example 29], in data set [1], the log p was 4.34^[a].

Take `COc1cccc(-c2cccc(CON=C(c3ccccc3)c3nnnn3C)n2)c1` [Example 33]: the log p in data set [1] is 3.89^[a].

As for `CCCCC/C=C/c1nc(CON=C(c2ccccc2)c2nnnn2C)cs1` [Example 81], the log p in data set [1] is 5.05^[a].

In the case of `Cn1nnnc1C(=NOCc1cccc(/C=C/c2cccc(F)c2)n1)c1ccccc1` [Example 91], the log p in data set [1] is 4.29^[a].

Consider `Cn1nnnc1C(=NOCc1cccc(-c2ccc(OC(F)(F)F)cc2)n1)c1ccccc1` [Example 40], for which the log p in data set [1] is 4.73^[a].

Turning to `Cn1nnnc1C(=NOCc1cccc(C(F)(F)C(F)(F)C(F)(F)C(F)(F)C(F)(F)C(F)(F)C(F)(F)F)n1)c1ccccc1` [Example 73], the log p in data set [1] is 5.86^[a].

As for `CCCCCSc1cccc(CON=C(c2ccccc2)c2nnnn2C)n1` [Example 74, 1-(1-methyl-1H-tetrazol-5-yl)-N-{[6-(pentylsulfanyl)pyridin-2-yl]methoxy}-1-phenylmethanimine], the chromatographic logP was found to be 5.97 in data set [2] (HPLC/MS, logP(HCOOH)) and 5.14 in data set [1].

Consider `CCCCC#Cc1nc(CON=C(c2ccccc2)c2nnnn2C)cs1` [Example 72], for which the log p in data set [1] is 4.36^[a].

On to `CCCCC/C=C/c1cccc(CON=C(c2ccccc2)c2nnnn2C)n1` [Example 90], for which the log p in data set [1] is 5^[a].

For the compound `CCCCOc1ccc(-c2cccc(CON=C(c3ccccc3)c3nnnn3C)n2)cc1` [Example 39], the log p in data set [1] is 5.2^[a].

For `CCCCCC/C=C/c1nc(CON=C(c2ccccc2)c2nnnn2C)cs1` [Example 82], the log p in data set [1] is 5.53^[a].

In the case of `CCCCCCN(C)c1nc(CON=C(c2ccccc2)c2nnnn2C)cs1` [Example 50], the log p in data set [1] is 4.56^[a].

Turning to `Cn1nnnc1C(=NOCc1cccc(/C=C/c2cc(F)cc(F)c2)n1)c1ccccc1` [Example 95], the log p in data set [1] was 4.49^[a].

In the case of `CC(C)CC#Cc1nc(CON=C(c2ccccc2)c2nnnn2C)cs1` [Example 61], the log p in data set [1] was 4.34^[a].

Consider `CCCC#Cc1cccc(CON=C(c2ccccc2)c2nnnn2C)n1` [Example 27], for which the log p in data set [1] was 3.83^[a].

Turning to `Cn1nnnc1C(=NOCc1csc(/C=C/Cc2ccccc2)n1)c1ccccc1` [Example 88], in data set [1], the log p was 4.29^[a].

On to `CCCCCCOc1cccc(CON=C(c2ccccc2)c2nnnn2C)n1` [Example 20, N-{[6-(hexyloxy)pyridin-2-yl]methoxy}-1-(1-methyl-1H-tetrazol-5-yl)-1-phenylmethanimine], for which the chromatographic logP in data set [2] (logP(HCOOH), HPLC/MS) was 5.39; in data set [1], 5.39.

Consider `COc1cccc(/C=C/c2cccc(CON=C(c3ccccc3)c3nnnn3C)n2)c1` [Example 87], for which the log p in data set [1] is 4.14^[a].

Regarding `C#Cc1cccc(CON=C(c2ccccc2)c2nnnn2C)n1` [Example 19], the log p was 2.7^[b] in data set [2] (method [b]: LC-MS at pH 2.7, 0.1% formic acid in water and acetonitrile, linear gradient 10% to 95% acetonitrile); 2.69^[a]; in data set [1].

On to `Cn1nnnc1C(=NOCc1cccc(-c2ccc(OCc3ccccc3)cc2)n1)c1ccccc1` [Example 36], for which the log p in data set [1] is 4.89^[a].

Turning to `Cn1nnnc1C(=NOCc1cccc(-c2cccc(Cl)c2)n1)c1ccccc1` [Example 47], the log p in data set [1] was 4.49^[a].

For `Cn1nnnc1C(=NOCc1cccc(C#CC[Si](C)(C)C)n1)c1ccccc1` [Example 26], in data set [1], the log p is 4.61^[a].

Take `CCCCCN(C)c1nc(CON=C(c2ccccc2)c2nnnn2C)cs1` [Example 51]: the log p in data set [1] was 4.01^[a].

Take `Cn1nnnc1C(=NOCc1csc(C#CC2CCCC2)n1)c1ccccc1` [Example 69]: the log p in data set [1] was 4.49^[a].

For the compound `Cn1nnnc1C(=NOCc1cccc(C#CC2CCCCC2)n1)c1ccccc1` [Example 30], the log p in data set [1] was 4.77^[a].

For the compound `CCc1ccc(-c2cccc(CON=C(c3ccccc3)c3nnnn3C)n2)cc1` [Example 38], the log p in data set [1] was 4.7^[a].

As to `CCCCCC/C=C/c1cccc(CON=C(c2ccccc2)c2nnnn2C)n1` [Example 92], in data set [1], the log p was 5.5^[a].

On to `Cn1nnnc1C(=NOCc1cccc(-c2ccc(-c3ccccc3)cc2)n1)c1ccccc1` [Example 35], for which, in data set [1], the log p is 5.05^[a].

Regarding `Cn1nnnc1C(=NOCc1csc(C#CCC2CCCC2)n1)c1ccccc1` [Example 66], the log p in data set [1] is 4.92^[a].

Take `CC(C)CCC#Cc1nc(CON=C(c2ccccc2)c2nnnn2C)cs1` [Example 65]: the log p in data set [1] is 4.75^[a].

For the origin of these results see patent publication US8466176B2 (priority 2008, dated 2013).
